Measurements: patent publication US10125358B2, “Methods and compounds for increasing threonyl-tRNA synthetase activity” (UNIVERSITY OF VERMONT AND STATE AGRICULTURAL COLLEGE, priority 2012, dated 2018)
Entries after “also recorded” stand apart in the source; their conditions may differ.

Columns and labels:
[1] = tested on: Human umbilical vein endothelial cells (HUVECs); experiment: In vitro endothelial tube formation assay on Matrigel; type: cell-based
Description: In Vitro Tube Formation Assay—
Tube formation assays were performed as described (Arnaoutova and Kleinman 2010; Cassavaugh, Hale et al. 2011). Human Umbilical Vein Endothelial Cells (HUVECs) were seeded in 48-well plates (1.5×10^4 cells/well) coated with 100 μl of Matrigel™ Basement Membrane Matrix Growth Factor Reduced (BD Biosciences, San Jose, Calif.) and incubated in Clonetics® EGM®-2 complete media (Lonza, Annandale, N.J.) or EGM®-2 with reduced serum (0.2% fetal bovine serum). Cells were incubated at 37° C. for 6 h then fixed in 10% formalin. Fixed samples were imaged by phase-contrast microscopy or stained with Oregon Green 488 Phalloidin (Molecular Probes, Eugene, Oreg.) then imaged with fluorescence microscopy (2× objective). Number of tubes and tube lengths (in pixels) were quantified using the Simple Neurite Tracer (Longair, Baker et al. 2011) plug-in on ImageJ software (NIH). Statistical analysis of one-way ANOVA was performed with GraphPad Software. Multiple comparisons were performed using the Tukey Test.

HUVECs = experiment: Endothelial cell proliferation assay (alamarBlue); type: cell-based, human
Description: Endothelial Cell Proliferation Assay—
The […] alamarBlue® (Invitrogen) reagent was used to assess cell proliferation (Ahmed, Gogal et al. 1994). HUVECs were seeded in a 96-well dish (1×10^3 cells/well) and grown for 48 h in EGM®-2 media. […] After 48 h, 72 h, or 96 h in culture, 10 μl/well premixed alamarBlue® (Invitrogen) was added and after 3 h at 37° C. the amount of reduced alamarBlue® was quantified by fluorescence (excitation at 530 nm, emission at 590 nm) on a microplate reader (Synergy™ HT, BioTek, Winooski, Vt.).

[2] = tested on: chorioallantoic membrane (CAM) of chicken embryos; experiment: Chick chorioallantoic membrane (CAM) assay; type: in vivo
Description: Chick Chorioallantoic Membrane Assay—
Fertilized chicken eggs (Sunrise Farms, Catskill, N.Y.) day 1-2 post-laying were incubated in a humidified incubator at 37° C. for 72 h. Cleaned eggs were cracked and plated in a sterile 10 cm^2 tissue culture-treated dish and incubated at 37° C. for another 7 days. On developmental day 10, 1 mm^3 sterile gelatin sponge pieces (Surgifoam®; Johnson & Johnson Wound Management, Somerville, N.J.) were placed within the outer one-third of the membrane between large vessels. […] All compounds were applied in 10 μl to the CAM every 24 h for 72 h. Images were taken using a Leica MZ6 stereomicroscope every 24 h. Compounds were scored according to a modified version of Intensity Scoring as previously described (Ribatti, Nico et al. 2006). Briefly, each experimental condition was given a blinded score from 0-5 based on the change in the extent of vessel convergence and formation in proximity to the sponge from day 0 to day 3. Total score is averaged individual experimental condition scores from at least 15 replicates.
Fertilized chicken embryos were cultured ex-ova and, starting at developmental day 10, agents were applied daily to gelfoam sponges on the CAM. Images were recorded daily over 72 h and scored blindly according to a modified version Intensity Scoring as previously described (Ribatti, Nico et al. 2006). Additional details regarding methods are provided in the Methods and Materials section of Example 1.

HUVEC = experiment: Transwell migration assay; type: cell-based, human; conditions: 4 h
Description: Transwell Migration Assay—
Migration was assessed using transwell inserts (Svensson, Kucharzewska et al. 2011). […] Cultures were incubated for 4 h, fixed in 10% formalin, and stained with 10 μg/ml DAPI solution (Roche) following removal of cells from the top layer of the chamber with a cotton swab. Migrated cells were imaged using a 4× objective on the Olympus IX70 Inverted microscope (Olympus). DAPI-stained nuclei were counted using ImageJ software.

TARS [3] = biological target: T1, TARS (Homo sapiens, UniProt P26639); experiment: Ap4A formation assay (TLC, [α-32P]-ATP); type: biochemical; set-up: His6 (N); made in house; host or cells: E. coli Rosetta 2 (DE3)pLysS, plasmid pET28a hctThrRS
T1 sequence (P26639 1-723): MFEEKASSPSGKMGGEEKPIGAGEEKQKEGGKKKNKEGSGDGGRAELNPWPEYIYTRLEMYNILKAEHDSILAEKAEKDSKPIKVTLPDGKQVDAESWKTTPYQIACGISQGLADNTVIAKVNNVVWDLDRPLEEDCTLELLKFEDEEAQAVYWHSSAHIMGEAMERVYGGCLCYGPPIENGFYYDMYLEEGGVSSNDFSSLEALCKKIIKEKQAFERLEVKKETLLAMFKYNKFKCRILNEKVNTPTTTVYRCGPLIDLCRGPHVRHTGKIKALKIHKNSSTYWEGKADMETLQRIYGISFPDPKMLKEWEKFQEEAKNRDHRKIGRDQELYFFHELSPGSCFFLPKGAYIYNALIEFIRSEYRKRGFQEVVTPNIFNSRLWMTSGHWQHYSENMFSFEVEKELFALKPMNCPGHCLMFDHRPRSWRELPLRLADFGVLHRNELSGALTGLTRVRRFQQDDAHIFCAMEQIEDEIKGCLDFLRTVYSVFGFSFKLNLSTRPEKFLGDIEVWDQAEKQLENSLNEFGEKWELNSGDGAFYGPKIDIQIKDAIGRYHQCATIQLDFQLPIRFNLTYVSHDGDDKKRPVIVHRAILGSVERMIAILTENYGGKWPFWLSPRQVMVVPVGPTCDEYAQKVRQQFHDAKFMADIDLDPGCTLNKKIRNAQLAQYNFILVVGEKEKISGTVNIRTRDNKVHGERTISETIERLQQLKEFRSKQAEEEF

TARS [4] = biological target: T1, TARS; experiment: Ap4G formation assay (TLC, [α-32P]-GTP); type: biochemical; set-up: His6 (N); made in house; host or cells: E. coli Rosetta 2 (DE3)pLysS, plasmid pET28a hctThrRS
TARS [5] = biological target: T1, TARS; experiment: GTPase (GTP hydrolysis) assay; type: biochemical; set-up: His6 (N); made in house; host or cells: E. coli Rosetta 2 (DE3)pLysS, plasmid pET28a hctThrRS; conditions: for GTP hydrolysis rate: 2 mM GTP

Molecule: C[C@@H]1C[C@H](C)C[C@H](C)[C@@H](O)CC(=O)O[C@H]([C@@H]2CC[C@H]2C(=O)O)C/C=C/C=C(/C#N)[C@H](O)[C@@H](C)C1 [BC194]
- number of branches formed by endothelial cells in tube formation assay ([1]; HUVECs on Matrigel, full serum media, 6 h, range of BC194 concentrations): sensitive to subnanomolar concentrations; also recorded: inhibits endothelial tube formation
- tube (branch) length ([1]; HUVECs, range of BC194 concentrations): unaffected; also recorded: does not affect
- concentration required to affect tube formation relative to that required to detect unfolded protein response (phospho-eIF2α) and apoptosis (cleaved caspase-3) ([1]; lower): 100 fold
- VEGF proliferative response, effect of BC194 (HUVECs; HUVECs, 50 ng/ml VEGF, 10 nM BC194): did not significantly reduce
- proliferation (HUVECs; HUVECs, BC194 concentrations below 100 nM): unaffected
- CAM vessel formation, effect of inhibitor ([2]; BC194 10 nM applied daily, basal level and after stimulation with bFGF or VEGF): inhibited vessel formation
- VEGF- and TARS-mediated migration, effect of BC194 (HUVEC; 10 nM BC194 with 50 ng/ml VEGF or 100 nM TARS): reduced both the migration effects of VEGF and TARS
- Ap4A synthesis, inhibition (qualitative) (TARS [3]; human TARS, 10 μM compound): at least partially inhibited
- decrease in Ap4A formation activity (TARS [3]; wildtype TARS, 10 μM compound): 31.0%
- Ap4G synthesis, inhibition (qualitative) (TARS [4]; human TARS, 10 μM compound): at least partially inhibited
- reduction of Ap4G reaction rate (TARS [4]; wildtype TARS, 10 μM BC194): 57%
- change of TARS GTPase activity upon treatment with inhibitor (TARS [5]; 10 μM compound): no observable change

B1: TARS: N-terminal His6-tagged human threonyl-tRNA synthetase expressed and purified from E. coli; SEQ ID NO:2 (protein, listed as Homo sapiens)
chain: MFEEKASSPSGKMGGEEKPIGAGEEKQKEGGKKKNKEGSGDGGRAELNPWPEYIYTRLEMYNILKAEHDSILAEKAEKDSKPIKVTLPDGKQVDAESWKTTPYQIACGISQGLADNTVIAKVNNVVWDLDRPLEEDCTLELLKFEDEEAQAVYWHSSAHIMGEAMERVYGGCLCYGPPIENGFYYDMYLEEGGVSSNDFSSLEALCKKIIKEKQAFERLEVKKETLLAMFKYNKFKCRILNEKVNTPTTTVYRCGPLIDLCRGPHVRHTGKIKALKIHKNSSTYWEGKADMETLQRIYGISFPDPKMLKEWEKFQEEAKNRDHRKIGRDQELYFFHELSPGSCFFLPKGAYIYNALIEFIRSEYRKRGFQEVVTPNIFNSRLWMTSGHWQHYSENMFSFEVEKELFALKPMNCPGHCLMFDHRPRSWRELPLRLADFGVLHRNELSGALTGLTRVRRFQQDDAHIFCAMEQIEDEIKGCLDFLRTVYSVFGFSFKLNLSTRPEKFLGDIEVWDQAEKQLENSLNEFGEKWELNSGDGAFYGPKIDIQIKDAIGRYHQCATIQLDFQLPIRFNLTYVSHDGDDKKRPVIVHRAILGSVERMIAILTENYGGKWPFWLSPRQVMVVPVGPTCDEYAQKVRQQFHDAKFMADIDLDPGCTLNKKIRNAQLAQYNFILVVGEKEKISGTVNIRTRDNKVHGERTISETIERLQQLKEFRSKQAEEEF
modifications: N-terminal His6 tag
- number of tube branches ([1]; 100 nM purified recombinant human TARS added to low serum (0.2% FBS) media, 6 h): significantly increased; also recorded: promotes angiogenesis
- cell proliferation, effect of TARS (HUVECs; HUVECs in low serum (0.2% FBS) media): did not exert a significant effect; also recorded: does not significantly affect cell proliferation
- sensitivity of synthetase-induced CAM angiogenesis to BC194 ([2]; protein plus BC194 applied to CAM): sensitive to BC194
- CAM vessel formation / vascularity, effect of applied synthetase ([2]; purified protein applied daily to gelfoam sponge, 72 h): stimulated vessel formation; also recorded: induces in vivo angiogenesis
- migration of endothelial cells (HUVEC; 100 nM protein in migration compartment): significantly increased migration; also recorded: selectively induces migration
- Ap4A production rate (TARS [3]; 5 μM enzyme, 2 mM threonine, 2 mM ATP): 0.1391 Ap4A/active site/min
- Ap4G formation rate (TARS [4]; 2 mM ATP, 2 mM threonine, 2 mM GTP): 0.1639 Ap4G/active site/min
- GTP hydrolysis rate (TARS [5]; listed as human TARS): potent GTPase activities
- GTP hydrolysis rate (TARS [5]; listed as wildtype): 0.3033 GDP/active site/min
